{"source": "patent US10738101B2", "about": "“Method for selecting odor-controlling substance” (Kao Corporation, priority 2015, dated 2020)", "test_system": "odor of guaiacol", "assay": "Sensory test of cross-adaptation, target odor guaiacol", "format": "in vivo, human", "settings": "panelists, test sample smelled before target sample, FIG. 6B", "experimental": "The cross-adaptation effect induced by the odorous substance evaluated in Example 2 was estimated by a sensory test. A glass bottle (No. 11, manufactured by Hakuyo Glass Co., Ltd., capacity: 110 mL) was charged with a target odorous substance to be used as a target sample. As the target odorous substance, muscone, guaiacol or p-cresol was used. As the muscone, a cotton ball soaked with 1 mg of muscone was used. As the guaiacol and p-cresol, 1 mL of a mineral oil (Sigma-Aldrich) solution in a concentration of 10 ppm was used. In a similar manner, a glass bottle was charged with a test substance to be used as a test sample. As the test sample, 5 mg of an ethyl vanillin powder, or 1 mL of a mineral oil (Sigma-Aldrich) solution of p-cresyl acetate, p-cresyl isobutyrate or p-methyl quinoline prepared to a concentration of 1,000 ppm was used.\nThe sensory test was performed by a single blind method by five to eight panelists. The target sample was first presented to each panelist, who was caused to replay on the odor intensity. Next, the test sample was presented for 2 minutes or until the odor could not be perceived. Thereafter, the target sample was presented again, and the panelist was caused to replay on the odor intensity. This series of operations was defined as one set, and the sensory test was carried out with four sets per day per panelist set as the upper limit. […]"}
{"smiles": "C[C@@H]1CCCCCCCCCCCCC(=O)C1", "note": "[muscone, (R)-3-methyl-1-cyclopentadecanone]", "values": [{"measurement": "cross-adaptation of guaiacol odor induced by test substance", "value": "not induced"}]}
